The values below are quoted from earlier work in PMC12067266 (Proceedings of the National Academy of Sciences of the …, 2025).

By IC50 is commonly meant the concentration that gives 50% inhibition.

The subject of the data set is KCa3.1. To be noted: read-out: KCa3.1 IC50; ref [21]–[23], [49], [50].

`NC(=O)C(c1ccccc1)(c1ccc(F)cc1)c1ccc(F)cc1` [Senicapoc]: the IC50 is 11 nM. For `Clc1ccccc1C(c1ccccc1)(c1ccccc1)n1cccn1` [TRAM-34], the concentration for half-maximal inhibition (IC50) is […]. With `O=C1CSc2ccccc2N1Cc1cccc(C(F)(F)F)c1` [NS6180], the IC50 was 9 nM.
